In brackets after ≈: the same amount, converted by molar mass. Several values for one entry are separate records, joined by “and”; a condition that tells them apart may be missing. Equal entries are not always repeated. Where two headings read alike, the source gives them in different places.
Assays:
[1] = test system: Leishmania aethiopica promastigotes; assay: In vitro antipromastigote (antileishmanial) assay, AlamarBlue; format: cell-based
Procedure: The viability of promastigotes can be estimated by microscopically counting live cells, measuring enzyme activities via the 3-(4,5-dimethyl-thiazol-2-yl)-2,5-diphenyl-tetrazolium bromide (MTT) assay, etc. The frequent use of these methods is hampered due to the lengthy and time-consuming procedures followed in the test. […] The extent of fluorescence produced by each sample is strongly correlated with the number of living cells.
A complete culture medium was prepared from RPMI-1640, 10% HIFCS, 1% penicillin–streptomycin, and 1% L-glutamine for the in vitro antipromastigote assay. The Leishmania aethiopica isolate was grown first on Novy-MacNeal-Nicolle (NNN) medium and then in tissue-culture flasks containing RPMI-1640 medium supplemented with 10% HIFCS and 1% 100 IU penicillin/mL-100 µg/mL streptomycin solution at 22 ℃ [35].
The entire test compound was dissolved in DMSO to a final concentration of 1 mg/mL. The final DMSO concentration was adjusted not to exceed v/v 1% to avoid its inhibitory effect against parasite proliferation or change in morphology. Six different concentrations of test compounds, ranging from 10 µg/mL to 0.04 µg/mL, were prepared by […] serial dilutions. Amphotericin B deoxycholate (with a concentration ranging from 0.5 µg/mL to 0.002 µg/mL) and miltefosine (with a concentration ranging from 40 µg/mL to 0.16 µg/mL) were used as a positive control and DMSO (v/v 1%) in complete media was used as a negative control to compare the antileishmanial activities of test compounds [36]. All the prepared drugs were stored at − 20 ℃ until used in the experiment.
The antileishmanial activity of the test compounds was evaluated in vitro against isolates of Leishmania aethiopica promastigotes. 100 µL of the parasite suspension containing 3 × 10^6 promastigotes per milliliter was added to 96-well plates. The six different concentrations of test compounds and reference drugs were then added in triplicate. DMSO in complete RPMI media was used as a negative control to compare the antileishmanial activities of the test compounds. After 24 h incubation, 20 µL of fluorochrome AlamarBlue® (12.5 mg resazurin dissolved in 100 mL of distilled water) was added to each well. Then, the absorbance of each well was measured after 4 h of incubation at wavelengths of 492 and 630 nm using an ELISA reader for the quantitative determination of viable cells. Finally, the IC50 values were computed from sigmoidal dose–response curves using GraphPad Prism 5.0 software (GraphPad Software, Inc., San Diego, CA, USA).

[2] = test system: Plasmodium berghei ANKA strain; assay: In vivo antimalarial four-day suppressive test; parameters: species or system Swiss albino mice; conditions: for Mean survival time: 48.46 µmol/kg per day (CQ 25 mg/kg), ND = no mouse death recorded during the study period; for Mean survival time / % Parasitemia: mean ± SD; for inhibition in vivo at 48.46 µmol/kg: Plasmodium berghei, in Mus musculus, 96 h, read-out: % Suppression
Excerpt: The four-day suppressive test was implemented to screen the antimalarial activity of the target compounds as it is effective in evaluating early infections and convenient to assess the prodrug effects of test compounds [30]. In this study, the in vivo antimalarial activity of the target compounds was investigated by using mice infected with Plasmodium berghei (achieve steady-state infection) at a dose of 48.4 µmol/kg per day. The results of the antimalarial activity screening of target compounds against the control groups were expressed based on mean parasitemia and percent inhibition of parasitemia (Table 2) which is known as a reliable parameter for in vivo antimalarial screening tests. […] While compounds 9, 10 and 11 containing amidic carbonyl group had less than 50% mean percent suppression compared to the positive control groups. Among the tested compounds, bis-[N,N-dimethylaminomethylene-4-(3-(4-methylphenyl)-4-(hydrazonomethylene)-1H-pyrazole-1-yl)benzenesulfonamide] […] On the other hand, there was an increase in the mean survival time (9.8 ± 1.3) of mice treated with a half dose ([…]) of compound 15, highlighting the potential dose-dependent toxicity associated with bis-structure due to cleavage of acid labile C = N bond and subsequent increase in concentration in the systemic circulation. […] This could be attributed to the presence of a primary amine group adjacent to the C = N bond that can increase the strength of binding interaction with the active site of the receptor by hydrogen bonding. Moreover, the hydrophobic interaction imparted by the methylated phenyl group with the amino acid residues in the enzyme pocket may be beneficial for the observed antimalarial activity of compound 14. The compounds containing C = O bond (9–12) near C = N had relatively lower antimalarial activity due to the electron-withdrawing effect and subsequent decrease in hydrogen bonding interactions with the different functional groups reside in the enzyme pocket.
The in vivo antimalarial activity of the synthesized compounds was determined using the four-day standard suppressive test using Swiss albino mice donated by the Ethiopian Health and Nutrition Institute, Addis Ababa, Ethiopia. Briefly, Swiss albino mice were infected with Plasmodium berghei ANKA strain (0.2 mL of 2 × 10^7 parasitized erythrocytes) through intraperitoneal injection. After 2 h of infection, the mice were weighed and randomly divided into nine groups of five mice per cage. Groups 1–7 received each test compound ([…]) dissolved in a vehicle containing 7% Tween 80, 3% ethanol, and water. Group 8 was treated with chloroquine phosphate (25 mg/kg) suspended in 7% Tween 80, 3% ethanol, and water which served as a positive control. Group 9 received 2 mL/100 g of the negative control (vehicle 7% Tween 80, 3% ethanol, and water). On day four (96 h post-infection), a blood smear was taken from the tail of each mouse, fixed with absolute ethanol, and stained with Giemsa stain. Then, the level of parasitemia was determined microscopically by counting four fields of approximately 100 erythrocytes per field. Finally, the antimalarial effects of control groups and test compounds were expressed in terms of blood parasitemia, percent suppression and mean survival time of mice.
The % suppression and % parasitemia in the antimalarial activity testing were computed using the formulas given below and the resulting data along with the mean survival time was analyzed using Microsoft office excel 2007. The variation in the values of suppressive test was assessed by using one-way analysis of variance (ANOVA) and p < 0.05 is considered as stastically significant.
Parasitemia(%)=Numberofinfectedredbloodcells/Numberoftotalredbloodcells×100
Suppression(%)=Parasitemiaintheuntreatedgroup-Parasitemiainthetreatedgroup/Parasitemiainuntreatedgroup×100

[3] = In vitro cytotoxicity test; format: cell-based, African green monkey; conditions: African green monkey, VERO cells (African green monkey kidney cells); normal VERO cells, 72 h, formazan OD
Procedure: (§1) The cytotoxicity of compound 13 with promising antileishmanial activity was investigated in vitro against African green monkey kidney cells (VERO cells). In a 96-well plate, VERO cells (1 × 10^5 cells per well) were incubated in triplicates with different concentrations of compound 13 (0–100 µM) for 72 h at 37 ℃ incubator with 95% humidity and 5% CO2 and the cell viability was determined by measuring the optical density (OD) of formazan. […] The CC50 and IC50 values were computed using the formula: Growth inhibition (%) = (ODcontrol-ODtest/ODcontrol)×100 . In addition, the selectivity indices (SI) were computed using the formula SI = CC50/IC50.

VERO cells = assay: In vitro cytotoxicity test; format: cell-based, African green monkey; conditions: CC50 VERO cells / IC50 Leishmania aethiopica
Procedure: as §1

[4] = parameters: method as in PMID 25768697; conditions: cited from earlier work
[5] = In vivo acute toxicity test (oral and intraperitoneal); conditions: mice
Procedure: The mice were weighed and divided into five groups of six mice per cage. After fasting them overnight, groups 1–4 received the test compound suspended in 1% acacia gum was administered orally at doses of 50, 100, 200, and 300 mg/kg. Group 5 (served as a control) was treated with the solvent (1% acacia gum) at a maximum dose of 1 mL/100 gm of body weight. […] Follow-up continued for 14 days with special attention for the first 24 h.

[6] = test system: chloroquine-resistant RKL9 strains; conditions: read-out: IC50 against chloroquine-resistant RKL9 strains; cited from earlier work
[7] = Leishmania aethiopica promastigotes, triplicate, 24 h incubation + 4 h AlamarBlue, read-out: IC50 Values (µg/mL), antipromastigote activity
[8] = Leishmania aethiopica promastigotes, molar form of the µg/mL values, read-out: IC50 Values (µM/mL), antipromastigote activity
[9] = P. berghei infected mice, day 4, 48.46 µmol/kg per day (CQ 25 mg/kg)
[10] = Leishmania aethiopica, value used for selectivity index, read-out: IC50 (µM) of antileishmanial activity (Table 3)

Structure (SMILES)	IC50 [1, 7]	IC50 [1, 8]	Mean survival time ([2]; P. berghei infected mice)	% Parasitemia [2, 9]	inhibition in vivo at 48.46 µmol/kg [2, 9]	other results
CN(C)C=NS(=O)(=O)c1ccc(-n2cc(/C=N/NC(=O)c3ccccc3O)c(-c3ccc(Cl)cc3)n2)cc1 [Compound 10, Nʹ-[(3-(4-chlorophenyl)-1-((4-N,N-dimethylaminomethylenesulfonamido)phenyl)-1H-pyrazol-4-yl)methylene] salicylhydrazide]	0.207 µg/mL	0.45 µM	6.8 ± 0.7 days	33.0 ± 6.7%	< 50%	–
CCCCCCCCCCCCCCCCOP(=O)([O-])OCC[N+](C)(C)C [Miltefosine, hexadecylphosphocholine, reference compound]	3.13 µg/mL	7.68 µM	–	–	–	IC50 [1, 10]: 7.9 µM; CC50 at 72 h [3]: 99700 nM; SI (selectivity index, CC50/IC50) (VERO cells): 12.63; IC50, antileishmanial activities [4]: 3.1921 µg/mL (≈ 7.83 µM)
C[C@@H]1[C@H](O)[C@@H](C)/C=C/C=C/C=C/C=C/C=C/C=C/C=C/[C@H](O[C@@H]2O[C@H](C)[C@@H](O)[C@H](N)[C@@H]2O)C[C@@H]2O[C@](O)(C[C@@H](O)C[C@@H](O)[C@H](O)CC[C@@H](O)C[C@@H](O)CC(=O)O[C@H]1C)C[C@H](O)[C@H]2C(=O)O [Amphotericin B, Amphotericin B deoxycholate, reference compound]	0.047 µg/mL	0.035 µM	–	–	–	IC50, antileishmanial activities [4]: 0.0472 µg/mL (≈ 0.0511 µM)
Cc1ccc(-c2nn(-c3ccc(S(N)(=O)=O)cc3)cc2/C=N/N)cc1 [Compound 14, 4-[3-(4-methylphenyl)-4-hydrazonomethylene-1H-pyrazol-1-yl] benzenesulfonamide]	3.26 µg/mL	6.71 µM	9.0 ± 2.0 days	15.5 ± 4.1%	–	–
Cc1ccc(-c2nn(-c3ccc(S(=O)(=O)N=CN(C)C)cc3)cc2/C=N/NC(=O)c2ccccc2O)cc1 [Compound 12]	0.111 µg/mL	0.28 µM	7.8 ± 1.2 days	67.9 ± 3.7%	–	–
Cc1ccc(-c2nn(-c3ccc(S(=O)(=O)N=CN(C)C)cc3)cc2/C=N/Nc2ccccc2)cc1 [Compound 13, N,N-dimethylaminomethylene-4-[(3-(4-methylphenyl)-4-(phenylhydrazonomethylene))-1H-pyrazol-1-yl]benzenesulfonamide]	–	–	9.5 ± 1.9 days	24.0 ± 1.7%	> 50%	IC50 ([1]; Leishmania aethiopica, read-out: IC50 Values (µM/mL), antipromastigote activity): 0.033 µM; IC50 [1, 10]: 0.604 µM; fold more active than amphotericin B deoxycholate (antipromastigote) ([1]; ratio of IC50 values versus amphotericin B deoxycholate): ~2.6 fold; CC50 at 72 h [3]: 118000 nM; SI (selectivity index, CC50/IC50) (VERO cells): 194 and 194.88; intraperitoneal acute toxicity ([5]; intraperitoneal injection ≤ 140 mg/kg, within 24 h or the entire study period): devoid of any inherent dose-dependent toxicity or death; oral acute toxicity: death ([5]; oral 50, 100, 200 and 300 mg/kg, 14 days): devoid of any death at all dose; oral acute toxicity: physical and gross behavioral observations ([5]; oral, up to highest dose 300 mg/kg): no visible symptoms of toxicity
CCN(CC)CCCC(C)Nc1ccnc2cc(Cl)ccc12 (stereo not drawn) [CQ, Chloroquine phosphate, reference compound]	–	–	–	0%	–	inhibition in vivo at 48.46 µmol/kg [2]: 100%; IC50 [6]: 192 nM
Cc1ccc(-n2cc(C=NNC(=O)c3ccccc3O)c(-c3ccccc3)n2)cc1 [Compound 11, Nʹ-[(3-phenyl-1-(4-methylphenyl)-1H-pyrazol-4-yl)methylene] salicylhydrazide]	5.74 µg/mL	10.4 µM	8.7 ± 0.7 days	30.0 ± 6.7%	< 50%	–
Cc1ccc(-c2nn(-c3ccc(S(=O)(=O)N=CN(C)C)cc3)cc2C=NN=Cc2cn(-c3ccc(S(=O)(=O)N=CN(C)C)cc3)nc2-c2ccc(C)cc2)cc1 [Compound 15, Bis-[N,N-dimethylaminomethylene-4-(3-(4-methylphenyl)-4-(hydrazonomethylene)-1H-pyrazole-1-yl)benzenesulfonamide]]	0.181 µg/mL	0.441 µM	7.7 ± 1.4 days	5.0 ± 1.4%	–	mean survival time at half dose ([2]; P. berghei infected mice, half dose (24.2 µmol/mL)): 9.8 ± 1.3
O=C(NN=Cc1cn(-c2ccc(Br)cc2)nc1-c1ccccc1)c1ccccc1O [Compound 9, Nʹ-[(1-(4-bromophenyl)-3-phenyl-1H-pyrazol-4-yl)methylene] salicylhydrazide]	0.084 µg/mL	0.256 µM	8.6 ± 1.8 days	34.7 ± 4.1%	< 50%	–

Reference: paper PMC10775556, “Synthesis, antileishmanial, antimalarial evaluation and molecular docking study of some hydrazine-coupled pyrazole derivatives” (BMC Chemistry, 2024)
